In patent US20170050961A1, “IMIDAZO[1,2-A]PYRIDINES AS SOLUBLE GUANYLATE CYCLASE STIMULATORS FOR THE TREATMENT OF CARDIOVASCULAR DISEASES” (BAYER PHARMA AKTIENGESELLSCHAFT, priority 2014, published 2017):

Molecular target: T1, recombinant guanylate cyclase reporter cell line (Rattus norvegicus, UniProt P19686+P20595)
T1 construct: expressed in transfected cells
T1 sequence (P19686 1-690): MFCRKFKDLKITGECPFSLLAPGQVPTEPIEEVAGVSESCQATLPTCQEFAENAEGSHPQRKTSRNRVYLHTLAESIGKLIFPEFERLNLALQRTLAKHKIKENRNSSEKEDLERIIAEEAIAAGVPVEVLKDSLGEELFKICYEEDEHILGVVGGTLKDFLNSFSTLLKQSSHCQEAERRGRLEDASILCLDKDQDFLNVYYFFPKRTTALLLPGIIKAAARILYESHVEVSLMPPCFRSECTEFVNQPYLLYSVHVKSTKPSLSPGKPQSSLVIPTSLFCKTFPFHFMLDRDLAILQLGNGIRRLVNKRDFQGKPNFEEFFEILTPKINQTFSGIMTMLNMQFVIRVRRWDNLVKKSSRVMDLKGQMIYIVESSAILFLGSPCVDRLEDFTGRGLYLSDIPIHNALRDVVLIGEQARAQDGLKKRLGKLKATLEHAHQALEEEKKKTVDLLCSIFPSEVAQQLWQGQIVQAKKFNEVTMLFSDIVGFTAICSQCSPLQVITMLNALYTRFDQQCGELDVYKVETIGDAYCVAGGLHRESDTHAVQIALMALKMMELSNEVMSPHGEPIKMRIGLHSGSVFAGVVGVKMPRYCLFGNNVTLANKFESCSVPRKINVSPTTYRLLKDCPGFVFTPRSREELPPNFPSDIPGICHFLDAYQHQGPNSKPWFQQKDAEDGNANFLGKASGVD
T1 sequence (P20595 1-619): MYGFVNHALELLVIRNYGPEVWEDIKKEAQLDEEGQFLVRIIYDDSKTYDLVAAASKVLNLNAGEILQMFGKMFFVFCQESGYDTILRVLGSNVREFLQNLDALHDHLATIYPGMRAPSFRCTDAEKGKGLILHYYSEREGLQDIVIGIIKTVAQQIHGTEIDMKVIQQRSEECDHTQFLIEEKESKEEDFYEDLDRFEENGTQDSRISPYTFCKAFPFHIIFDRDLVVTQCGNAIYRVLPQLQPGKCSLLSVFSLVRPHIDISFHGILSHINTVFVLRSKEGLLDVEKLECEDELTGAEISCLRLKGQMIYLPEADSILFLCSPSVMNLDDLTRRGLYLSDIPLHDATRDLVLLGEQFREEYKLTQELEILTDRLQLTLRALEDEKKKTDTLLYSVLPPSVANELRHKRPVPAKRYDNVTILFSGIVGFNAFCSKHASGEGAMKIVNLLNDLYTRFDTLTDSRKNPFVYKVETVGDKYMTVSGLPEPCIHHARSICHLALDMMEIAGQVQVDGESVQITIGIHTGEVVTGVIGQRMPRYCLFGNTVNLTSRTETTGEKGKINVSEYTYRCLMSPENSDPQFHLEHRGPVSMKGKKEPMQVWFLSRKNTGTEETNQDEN
Test: Effect on a recombinant guanylate cyclase reporter cell line
Assay type: cell-based
Details: MEC=minimum effective concentration; in some cases as mean values for individual determinations
Protocol: B-2. Effect on a Recombinant Guanylate Cyclase Reporter Cell Line
The cellular activity of the compounds of the invention is determined using a recombinant guanylate cyclase reporter cell line, as described in F. Wunder et al., Anal Biochem. 339, 104-112 (2005).
Representative MEC values (MEC=minimum effective concentration) for the compounds of the invention are shown in the table below (in some cases as mean values for individual determinations): […]

| MEC [µM] | SMILES |
| --- | --- |
| 0.1 | CCCC(C)(N)CNC(=O)c1c(Cl)nc2c(OCc3c(F)cccc3F)cc(C)cn12 (single isomer, unassigned; enantiomer a) [Example 24, ent-N-(2-Amino-2-methylpentyl)-2-chloro-8-[(2,6-difluorobenzyl)oxy]-6-methylimidazo[1,2-a]pyridine-3-carboxamide (enantiomer A)] |
| 1.0 | CCC(C)(N)CNC(=O)c1c(C)nc2c(OCc3c(F)cccc3F)cc(-c3cnco3)cn12 (racemic) [Example 7, rac-N-(2-Amino-2-methylbutyl)-8-[(2,6-difluorobenzyl)oxy]-2-methyl-6-(1,3-oxazol-5-yl)imidazo[1,2-a]pyridine-3-carboxamide] |
| 3.0 | CCC(C)(N)CNC(=O)c1c(C)nc2c(OCc3c(F)cccc3F)cc(COC)cn12.Cl (racemic) [Example 4, rac-N-(2-Amino-2-methylbutyl)-8-[(2,6-difluorobenzyl)oxy]-6-(methoxymethyl)-2-methylimidazo[1,2-a]pyridine-3-carboxamide hydrochloride] |
| 0.07 | Cc1cc(OCc2c(F)cccc2F)c2nc(Cl)c(C(=O)NCC(C)(N)CCC(F)(F)F)n2c1 (single isomer, unassigned; enantiomer b) [Example 19, ent-N-(2-Amino-5,5,5-trifluoro-2-methylpentyl)-2-chloro-8-[(2,6-difluorobenzyl)oxy]-6-methylimidazo[1,2-a]pyridine-3-carboxamide (enantiomer B)] |
| 2.0 | CCC(C)(N)CNC(=O)c1c(OC)nc2c(OCc3c(F)cccc3F)cc(C)cn12 (single isomer, unassigned; enantiomer b) [Example 26, ent-N-(2-Amino-2-methylbutyl)-8-[(2,6-difluorobenzyl)oxy]-2-methoxy-6-methylimidazo[1,2-a]pyridine-3-carboxamide (enantiomer B)] |
| 3.0 | COc1nc2c(OCc3c(F)cccc3F)cc(C)cn2c1C(=O)NCC(C)(N)CCC(F)(F)F (single isomer, unassigned; enantiomer b) [Example 27, ent-N-(2-Amino-5,5,5-trifluoro-2-methylpentyl)-8-[(2,6-difluorobenzyl)oxy]-2-methoxy-6-methylimidazo[1,2-a]pyridine-3-carboxamide (enantiomer B)] |
| 0.03 | Cc1cc(OCc2c(F)cccc2F)c2nc(Cl)c(C(=O)NC(CCC(F)(F)C(F)(F)F)C(C)(C)O)n2c1 (single isomer, unassigned; ent-2) [Example 28, ent-2-Chloro-8-[(2,6-difluorobenzyl)oxy]-6-methyl-N-(6,6,7,7,7-pentafluoro-2-hydroxy-2-methylheptan-3-yl)imidazo[1,2-a]pyridine-3-carboxamide (enantiomer A)] |
